Tests used:
B16-F10 [1] = experiment: Inhibition of alphaMSH-induced melanin production in mouse B16F10 cells after 48 hrs by melanin content assay; type: functional, cell-based
[2] = biological target: T1, Tyrosinase (Mus musculus) (UniProt P11344); experiment: Inhibition of tyrosinase in mouse B16F10 cells assessed as L-DOPA oxidation after 24 hrs by ELISA; type: cell-based; conditions: B16-F10
T1 sequence (whole entry): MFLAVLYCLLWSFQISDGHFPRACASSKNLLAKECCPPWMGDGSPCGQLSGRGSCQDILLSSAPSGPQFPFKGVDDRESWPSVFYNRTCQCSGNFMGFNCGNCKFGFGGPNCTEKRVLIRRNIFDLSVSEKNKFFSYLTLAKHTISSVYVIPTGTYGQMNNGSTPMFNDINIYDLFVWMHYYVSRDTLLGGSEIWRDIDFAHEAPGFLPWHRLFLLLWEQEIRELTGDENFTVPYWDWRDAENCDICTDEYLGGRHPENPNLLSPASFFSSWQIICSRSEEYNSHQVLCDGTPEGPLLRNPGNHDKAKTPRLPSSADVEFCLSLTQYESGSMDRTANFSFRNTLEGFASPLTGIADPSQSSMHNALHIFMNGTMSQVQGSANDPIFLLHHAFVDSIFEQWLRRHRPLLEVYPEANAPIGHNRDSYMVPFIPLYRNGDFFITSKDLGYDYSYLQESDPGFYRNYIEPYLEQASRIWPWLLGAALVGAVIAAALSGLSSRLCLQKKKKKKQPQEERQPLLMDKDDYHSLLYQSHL

[3] = biological target: T1, Tyrosinase (Mus musculus); experiment: Inhibition of tyrosinase in mouse B16F10 cells assessed as L-DOPA oxidation at 0.2 uM after 24 hrs by ELISA (reference value: […] %); type: cell-based; conditions: B16-F10
[4] = biological target: T1, Tyrosinase (Mus musculus); experiment: Inhibition of tyrosinase in mouse B16F10 cells assessed as L-DOPA oxidation at 0.1 uM after 24 hrs by ELISA (reference value: […] %); type: cell-based; conditions: B16-F10
B16-F10 [5] = experiment: Inhibition of alphaMSH-induced melanin production in mouse B16F10 cells at 2 uM after 48 hrs by melanin content assay (reference value: 163.78 %); type: functional; conditions: B16-F10, 48 h
B16-F10 [6] = experiment: Inhibition of alphaMSH-induced melanin production in mouse B16F10 cells at 0.1 uM after 48 hrs by melanin content assay (reference value: 163.78 %); type: functional; conditions: B16-F10, 48 h
B16-F10 [7] = experiment: Inhibition of alphaMSH-induced melanin production in mouse B16F10 cells at 0.2 uM after 48 hrs by melanin content assay (reference value: 163.78 %); type: functional; conditions: B16-F10, 48 h
B16-F10 [8] = experiment: Inhibition of alphaMSH-induced melanin production in mouse B16F10 cells at 0.05 uM after 48 hrs by melanin content assay (reference value: 163.78 %); type: functional; conditions: B16-F10, 48 h
[9] = Cytotoxicity against mouse B16F10 cells assessed as cell viability at 40 uM after 48 hrs by MTT assay; type: cell-based, B16-F10; conditions: read-out: Activity
[10] = Cytotoxicity against mouse B16F10 cells assessed as cell viability at 10 uM after 48 hrs by MTT assay; type: cell-based, B16-F10; conditions: read-out: Activity
[11] = Cytotoxicity against mouse B16F10 cells assessed as cell viability at 20 uM after 48 hrs by MTT assay; type: cell-based, B16-F10; conditions: read-out: Activity
Tyrosinase = biological target: T2, Tyrosinase (Agaricus bisporus, UniProt O42713); experiment: Inhibition of mushroom tyrosinase using L-tyrosine as substrate assessed as amount of dopachrome produced after 30 mins by spectrophotometry
T2 sequence (O42713 whole entry): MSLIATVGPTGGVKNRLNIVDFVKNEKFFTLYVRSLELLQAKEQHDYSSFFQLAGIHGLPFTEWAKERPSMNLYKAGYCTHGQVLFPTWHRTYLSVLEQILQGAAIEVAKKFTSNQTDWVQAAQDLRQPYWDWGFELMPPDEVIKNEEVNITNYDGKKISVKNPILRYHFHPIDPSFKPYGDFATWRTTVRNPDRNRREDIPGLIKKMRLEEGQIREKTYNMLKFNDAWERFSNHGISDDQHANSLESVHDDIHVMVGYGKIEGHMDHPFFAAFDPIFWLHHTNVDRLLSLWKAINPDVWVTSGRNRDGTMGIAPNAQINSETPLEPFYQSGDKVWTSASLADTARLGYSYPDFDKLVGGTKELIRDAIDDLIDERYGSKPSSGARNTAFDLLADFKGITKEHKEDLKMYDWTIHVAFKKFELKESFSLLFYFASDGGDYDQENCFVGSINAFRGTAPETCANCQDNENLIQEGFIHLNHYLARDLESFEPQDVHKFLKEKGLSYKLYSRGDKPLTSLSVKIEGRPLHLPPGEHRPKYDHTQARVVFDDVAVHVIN

[12] = Cytotoxicity against mouse B16F10 cells assessed as cell viability at 5 uM after 48 hrs by MTT assay; type: cell-based, B16-F10; conditions: read-out: Activity
[13] = biological target: T3, Tyrosinase (Agaricus bisporus) (UniProt O42713); experiment: Inhibition of mushroom tyrosinase using L-tyrosine as substrate assessed as amount of dopachrome produced at 2 uM after 30 mins by spectrophotometry
T3 sequence (whole entry): T2 sequence (O42713 whole entry)

[14] = biological target: T3, Tyrosinase (Agaricus bisporus); experiment: Inhibition of mushroom tyrosinase using L-tyrosine as substrate assessed as amount of dopachrome produced at 1 uM after 30 mins by spectrophotometry
[15] = biological target: T3, Tyrosinase (Agaricus bisporus); experiment: Inhibition of mushroom tyrosinase using L-tyrosine as substrate assessed as amount of dopachrome produced at 0.8 uM after 30 mins by spectrophotometry
[16] = biological target: T3, Tyrosinase (Agaricus bisporus); experiment: Inhibition of mushroom tyrosinase using L-tyrosine as substrate assessed as amount of dopachrome produced at 0.1 uM after 30 mins by spectrophotometry
[17] = biological target: T3, Tyrosinase (Agaricus bisporus); experiment: Inhibition of mushroom tyrosinase using L-tyrosine as substrate assessed as amount of dopachrome produced at 0.5 uM after 30 mins by spectrophotometry
[18] = Cytotoxicity against mouse B16F10 cells assessed as cell viability at 2 uM after 48 hrs by MTT assay; type: cell-based, B16-F10; conditions: read-out: Activity

inhibition [2]: Dose-dependent effect
inhibition [3]: 109%
inhibition [4]: 133%
IC50 (Tyrosinase): 500 nM
inhibition [13]: 83.5%
inhibition [14]: 73.6%
inhibition [15]: 68.3%
inhibition [16]: 22.2%
inhibition [17]: 56.5%
Compound: Oc1ccc(-c2nc3cc4c(cc3s2)CCC4)c(O)c1
inhibition (B16-F10 [1]): Dose-dependent effect
inhibition at 2 µM (B16-F10 [5]): 88.8%
inhibition at 0.1 µM (B16-F10 [6]): 101%
inhibition at 0.2 µM (B16-F10 [7]): 94.5%
inhibition at 0.05 µM (B16-F10 [8]): 121%
viability at 48 h, 40 µM [9]: 88.4%
viability at 48 h, 10 µM [10]: 98.1%
viability at 48 h, 20 µM [11]: 95.6%
viability at 48 h, 5 µM [12]: 95%
viability at 48 h, 2 µM [18]: 97.9%

From ChEMBL document CHEMBL2401664, “De novo tyrosinase inhibitor: 4-(6,7-dihydro-5H-indeno[5,6-d]thiazol-2-yl)benzene-1,3-diol (MHY1556)” (Bioorg Med Chem Lett, 2013)
